Data from ChEMBL document CHEMBL1909046, “DrugMatrix in vitro pharmacology data”.

Experiments:
[1] = molecular target: T1, Alpha-2C adrenergic receptor (Homo sapiens, UniProt P18825); assay: DRUGMATRIX: Adrenergic Alpha-2C radioligand binding (ligand: [3H] MK-912); type: cell membranes, Sf9, Membrane; settings: sf9
T1 sequence (P18825 whole entry): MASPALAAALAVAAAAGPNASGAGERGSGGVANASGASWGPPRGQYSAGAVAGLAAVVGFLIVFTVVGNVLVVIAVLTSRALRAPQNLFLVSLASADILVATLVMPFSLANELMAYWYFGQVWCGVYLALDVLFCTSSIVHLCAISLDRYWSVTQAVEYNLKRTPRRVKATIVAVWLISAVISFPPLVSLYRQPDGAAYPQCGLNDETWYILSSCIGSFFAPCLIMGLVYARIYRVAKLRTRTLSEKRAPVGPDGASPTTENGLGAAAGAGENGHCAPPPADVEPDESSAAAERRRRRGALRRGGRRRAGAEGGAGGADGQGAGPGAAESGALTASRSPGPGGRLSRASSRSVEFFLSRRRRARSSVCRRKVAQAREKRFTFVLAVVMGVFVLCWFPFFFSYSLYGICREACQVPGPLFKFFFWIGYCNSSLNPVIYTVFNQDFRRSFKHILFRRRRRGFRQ

[2] = molecular target: 5-hydroxytryptamine receptor 2B (Homo sapiens, UniProt P41595); type: cell membranes, CHO-K1, Membrane; settings: cho-k1; note: in other assays of this panel Not Active means under 50% inhibition at 10 µM
Sequence of 5-hydroxytryptamine receptor 2B (P41595 whole entry): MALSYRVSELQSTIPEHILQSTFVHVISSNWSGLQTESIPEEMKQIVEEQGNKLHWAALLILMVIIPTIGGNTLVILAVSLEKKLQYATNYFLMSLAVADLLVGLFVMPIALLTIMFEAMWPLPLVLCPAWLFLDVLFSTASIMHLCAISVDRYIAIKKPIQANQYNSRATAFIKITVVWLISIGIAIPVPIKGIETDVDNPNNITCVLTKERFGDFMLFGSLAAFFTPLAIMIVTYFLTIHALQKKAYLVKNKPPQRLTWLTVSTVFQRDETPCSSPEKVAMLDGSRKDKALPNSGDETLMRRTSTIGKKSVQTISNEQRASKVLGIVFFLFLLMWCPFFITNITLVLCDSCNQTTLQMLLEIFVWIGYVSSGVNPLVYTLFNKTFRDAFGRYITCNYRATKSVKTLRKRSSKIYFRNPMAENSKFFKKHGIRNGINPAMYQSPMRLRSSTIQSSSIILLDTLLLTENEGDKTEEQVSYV

[3] = molecular target: T2, Vasoactive intestinal polypeptide receptor 1 (Homo sapiens, UniProt P32241); type: cell membranes, Membrane; settings: ht-29; note: in other assays of this panel Not Active means under 50% inhibition at 10 µM
T2 sequence (P32241 whole entry): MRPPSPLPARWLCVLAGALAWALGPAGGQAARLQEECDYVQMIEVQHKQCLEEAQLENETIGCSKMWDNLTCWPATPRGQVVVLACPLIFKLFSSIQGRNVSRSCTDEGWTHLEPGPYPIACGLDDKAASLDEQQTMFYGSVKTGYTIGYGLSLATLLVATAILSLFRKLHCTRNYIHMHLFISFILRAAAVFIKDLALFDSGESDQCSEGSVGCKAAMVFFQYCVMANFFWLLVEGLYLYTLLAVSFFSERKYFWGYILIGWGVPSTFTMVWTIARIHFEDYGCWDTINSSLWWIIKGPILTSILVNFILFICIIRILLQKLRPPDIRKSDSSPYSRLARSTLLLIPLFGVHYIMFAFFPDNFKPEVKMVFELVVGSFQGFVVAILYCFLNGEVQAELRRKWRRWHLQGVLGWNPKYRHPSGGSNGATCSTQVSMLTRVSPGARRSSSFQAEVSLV

D(1A) dopamine receptor = D(1A) dopamine receptor (Homo sapiens, UniProt P21728); assay: DRUGMATRIX: Dopamine D1 radioligand binding (ligand: [3H] SCH-23390); type: cell membranes, CHO, Membrane; settings: cho; Not Active = under 50% inhibition at 10 µM
Sequence of D(1A) dopamine receptor (P21728 whole entry): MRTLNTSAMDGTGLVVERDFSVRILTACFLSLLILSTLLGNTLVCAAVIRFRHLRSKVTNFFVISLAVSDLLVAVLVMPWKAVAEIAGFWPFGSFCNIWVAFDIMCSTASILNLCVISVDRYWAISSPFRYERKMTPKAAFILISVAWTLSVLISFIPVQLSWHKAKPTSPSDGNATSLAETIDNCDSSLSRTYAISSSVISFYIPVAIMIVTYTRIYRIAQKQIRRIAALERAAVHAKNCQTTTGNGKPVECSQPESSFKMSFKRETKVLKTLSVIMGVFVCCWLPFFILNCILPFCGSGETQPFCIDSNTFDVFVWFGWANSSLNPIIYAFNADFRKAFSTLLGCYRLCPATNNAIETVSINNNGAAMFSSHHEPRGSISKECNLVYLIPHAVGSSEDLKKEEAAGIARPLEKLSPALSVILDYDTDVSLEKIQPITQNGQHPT

[4] = DRUGMATRIX: Nicotinic Acetylcholine radioligand binding (ligand: [125I] Epibatidine); type: cell membranes, Membrane; settings: imr-32; Not Active = under 50% inhibition at 10 µM
[5] = DRUGMATRIX: Phosphodiesterase PDE3 enzyme inhibition (substrate: [3H]cAMP + cAMP); type: tissue-based, Homo sapiens; settings: platelet; Not Active = under 50% inhibition at 10 µM
[6] = molecular target: Protein kinase C alpha type (Homo sapiens, UniProt P17252); type: cell-based; settings: sf9;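 note: inhibition of PKCalpha kinase activity measured in an enzyme assay with histone as the phosphorylation substrate; in other assays of this panel Not Active means under 50% inhibition at 10 µM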
[7] = molecular target: 5-hydroxytryptamine receptor 1B (Rattus norvegicus, UniProt P28564); type: cell membranes, Wistar, Cerebral cortex, Membrane; note: in other assays of this panel Not Active means under 50% inhibition at 10 µM
Sequence of 5-hydroxytryptamine receptor 1B (P28564 whole entry): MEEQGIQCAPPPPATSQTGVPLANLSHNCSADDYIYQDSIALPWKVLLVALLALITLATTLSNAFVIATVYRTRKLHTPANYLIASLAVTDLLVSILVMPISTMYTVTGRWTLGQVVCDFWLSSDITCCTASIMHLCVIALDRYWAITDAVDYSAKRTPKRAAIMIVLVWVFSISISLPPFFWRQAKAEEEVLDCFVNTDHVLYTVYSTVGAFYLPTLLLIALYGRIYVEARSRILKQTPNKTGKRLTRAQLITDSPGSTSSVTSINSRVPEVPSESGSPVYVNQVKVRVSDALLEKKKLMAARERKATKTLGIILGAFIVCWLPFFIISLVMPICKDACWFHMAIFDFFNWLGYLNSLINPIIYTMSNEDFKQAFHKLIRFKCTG

Cytochrome P450 1A2 = molecular target: T3, Cytochrome P450 1A2 (Homo sapiens, UniProt P05177); settings: bti-tn-5b1-4; note: in other assays of this panel Not Active means under 50% inhibition at 10 µM
T3 sequence (P05177 whole entry): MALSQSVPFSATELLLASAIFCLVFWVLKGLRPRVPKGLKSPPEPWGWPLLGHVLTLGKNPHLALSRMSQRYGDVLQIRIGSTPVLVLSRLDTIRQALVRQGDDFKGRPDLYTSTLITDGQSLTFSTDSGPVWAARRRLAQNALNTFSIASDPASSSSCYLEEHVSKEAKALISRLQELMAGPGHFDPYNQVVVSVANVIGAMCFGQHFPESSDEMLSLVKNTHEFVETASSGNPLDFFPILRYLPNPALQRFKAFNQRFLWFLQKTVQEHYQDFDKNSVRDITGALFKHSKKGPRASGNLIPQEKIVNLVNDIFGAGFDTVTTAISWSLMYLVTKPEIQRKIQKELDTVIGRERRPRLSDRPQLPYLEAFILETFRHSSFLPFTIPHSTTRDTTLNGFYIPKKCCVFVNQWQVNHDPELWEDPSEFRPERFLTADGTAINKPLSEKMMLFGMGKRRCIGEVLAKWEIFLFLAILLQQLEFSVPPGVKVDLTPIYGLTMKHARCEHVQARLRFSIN

Cytochrome P450 2D6 = Cytochrome P450 2D6 (Homo sapiens, UniProt P10635); settings: bti-tn-5b1-4; note: in other assays of this panel Not Active means under 50% inhibition at 10 µM
Sequence of Cytochrome P450 2D6 (P10635 whole entry): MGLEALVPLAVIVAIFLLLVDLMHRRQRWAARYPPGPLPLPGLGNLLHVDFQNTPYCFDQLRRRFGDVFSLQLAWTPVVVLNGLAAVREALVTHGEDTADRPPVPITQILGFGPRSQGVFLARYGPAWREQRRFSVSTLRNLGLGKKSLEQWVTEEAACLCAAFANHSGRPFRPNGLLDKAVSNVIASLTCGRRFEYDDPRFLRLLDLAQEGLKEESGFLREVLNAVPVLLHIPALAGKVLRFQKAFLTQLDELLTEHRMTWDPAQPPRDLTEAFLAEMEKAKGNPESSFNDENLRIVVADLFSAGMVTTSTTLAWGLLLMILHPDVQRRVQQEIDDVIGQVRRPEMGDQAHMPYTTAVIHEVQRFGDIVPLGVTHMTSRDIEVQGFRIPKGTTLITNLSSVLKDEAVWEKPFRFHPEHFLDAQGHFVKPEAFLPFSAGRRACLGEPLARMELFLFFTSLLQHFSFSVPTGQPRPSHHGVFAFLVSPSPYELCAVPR

Glucocorticoid receptor = molecular target: T4, Glucocorticoid receptor (Homo sapiens, UniProt P04150); settings: hela s3; note: in other assays of this panel Not Active means under 50% inhibition at 10 µM
T4 sequence (P04150 whole entry): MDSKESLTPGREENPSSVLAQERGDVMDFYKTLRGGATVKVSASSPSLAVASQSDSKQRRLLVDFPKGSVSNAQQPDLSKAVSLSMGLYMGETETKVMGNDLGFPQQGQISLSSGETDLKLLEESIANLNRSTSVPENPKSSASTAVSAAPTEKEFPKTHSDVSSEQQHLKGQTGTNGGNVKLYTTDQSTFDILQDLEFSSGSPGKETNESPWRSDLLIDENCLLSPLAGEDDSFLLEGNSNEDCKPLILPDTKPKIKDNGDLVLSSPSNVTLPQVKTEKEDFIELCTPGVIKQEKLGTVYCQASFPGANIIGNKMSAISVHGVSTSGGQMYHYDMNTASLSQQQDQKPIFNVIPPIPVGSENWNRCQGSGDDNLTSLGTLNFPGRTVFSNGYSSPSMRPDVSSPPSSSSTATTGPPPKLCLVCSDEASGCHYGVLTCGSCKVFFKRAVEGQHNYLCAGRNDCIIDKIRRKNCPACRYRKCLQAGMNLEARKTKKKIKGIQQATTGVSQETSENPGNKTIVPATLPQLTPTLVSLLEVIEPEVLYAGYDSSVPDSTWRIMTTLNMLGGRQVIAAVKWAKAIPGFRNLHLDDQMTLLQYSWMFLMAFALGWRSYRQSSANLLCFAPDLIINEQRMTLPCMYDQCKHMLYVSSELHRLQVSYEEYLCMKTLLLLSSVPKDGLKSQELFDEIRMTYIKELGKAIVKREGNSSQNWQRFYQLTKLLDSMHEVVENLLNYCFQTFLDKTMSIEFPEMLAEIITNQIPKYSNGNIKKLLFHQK

[8] = molecular target: Voltage-gated inwardly rectifying potassium channel KCNH2 (Homo sapiens, UniProt Q12809); settings: hek293; note: in other assays of this panel Not Active means under 50% inhibition at 10 µM
Sequence of Voltage-gated inwardly rectifying potassium channel KCNH2 (Q12809 whole entry): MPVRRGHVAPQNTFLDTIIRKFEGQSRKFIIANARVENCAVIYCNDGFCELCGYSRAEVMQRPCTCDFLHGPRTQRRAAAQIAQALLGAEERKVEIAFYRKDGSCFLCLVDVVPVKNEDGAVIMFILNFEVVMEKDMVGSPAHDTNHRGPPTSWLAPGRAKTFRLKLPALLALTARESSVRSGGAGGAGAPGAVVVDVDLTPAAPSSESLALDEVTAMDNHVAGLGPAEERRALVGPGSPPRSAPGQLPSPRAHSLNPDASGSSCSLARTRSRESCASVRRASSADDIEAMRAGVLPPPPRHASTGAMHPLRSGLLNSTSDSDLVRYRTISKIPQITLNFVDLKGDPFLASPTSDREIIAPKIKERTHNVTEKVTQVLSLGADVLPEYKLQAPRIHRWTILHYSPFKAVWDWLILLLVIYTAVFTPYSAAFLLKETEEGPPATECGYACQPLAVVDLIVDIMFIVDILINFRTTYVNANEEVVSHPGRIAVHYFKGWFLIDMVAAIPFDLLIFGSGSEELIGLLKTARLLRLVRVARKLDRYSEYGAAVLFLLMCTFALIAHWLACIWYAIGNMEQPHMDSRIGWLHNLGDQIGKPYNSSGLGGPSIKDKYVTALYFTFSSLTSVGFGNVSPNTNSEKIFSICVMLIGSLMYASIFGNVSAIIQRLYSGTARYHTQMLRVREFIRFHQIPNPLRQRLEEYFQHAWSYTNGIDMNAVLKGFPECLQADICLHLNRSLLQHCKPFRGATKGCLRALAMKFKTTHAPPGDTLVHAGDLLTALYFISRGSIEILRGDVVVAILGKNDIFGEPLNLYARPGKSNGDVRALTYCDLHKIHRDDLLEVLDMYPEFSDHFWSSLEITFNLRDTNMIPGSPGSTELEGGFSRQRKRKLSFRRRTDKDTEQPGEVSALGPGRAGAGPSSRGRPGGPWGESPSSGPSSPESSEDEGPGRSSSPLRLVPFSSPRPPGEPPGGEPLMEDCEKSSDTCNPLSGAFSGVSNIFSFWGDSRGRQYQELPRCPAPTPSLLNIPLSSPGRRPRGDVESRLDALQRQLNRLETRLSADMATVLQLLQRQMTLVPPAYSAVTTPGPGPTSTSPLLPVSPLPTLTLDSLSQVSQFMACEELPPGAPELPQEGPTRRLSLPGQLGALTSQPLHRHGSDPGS

Cc1ncc([N+](=O)[O-])n1CC(C)O (configuration not stated) [SECNIDAZOLE]
Not Active: IC50 [1] | IC50 [2] | IC50 [3] | IC50 (D(1A) dopamine receptor) | IC50 [4] | Ki [4] | IC50 [5] | Ki [5] | IC50 [6] | IC50 [7] | IC50 (Cytochrome P450 1A2) | Ki (Cytochrome P450 1A2) | IC50 (Cytochrome P450 2D6) | Ki (Cytochrome P450 2D6) | IC50 (Glucocorticoid receptor) | IC50 [8] | Ki [8]

CN(N=O)C(=O)N[C@@H](C=O)[C@@H](O)[C@H](O)[C@H](O)CO [STREPTOZOCIN]
Not Active: IC50 [1] | IC50 [2] | IC50 [3] | IC50 (D(1A) dopamine receptor) | IC50 [4] | Ki [4] | IC50 [5] | Ki [5] | IC50 [6] | IC50 [7] | IC50 (Cytochrome P450 1A2) | Ki (Cytochrome P450 1A2) | IC50 (Cytochrome P450 2D6) | Ki (Cytochrome P450 2D6) | IC50 (Glucocorticoid receptor) | IC50 [8] | Ki [8]

Nc1ccc(S(=O)(=O)Nc2ccnn2-c2ccccc2)cc1 [SULFAPHENAZOLE]
Not Active: IC50 [1] | IC50 [2] | IC50 [3] | IC50 (D(1A) dopamine receptor) | IC50 [4] | Ki [4] | IC50 [5] | Ki [5] | IC50 [6] | IC50 [7] | IC50 (Cytochrome P450 1A2) | Ki (Cytochrome P450 1A2) | IC50 (Cytochrome P450 2D6) | Ki (Cytochrome P450 2D6) | IC50 (Glucocorticoid receptor) | IC50 [8] | Ki [8]

C=CC[C@@H]1/C=C(\C)C[C@H](C)C[C@H](OC)[C@H]2O[C@@](O)(C(=O)C(=O)N3CCCC[C@H]3C(=O)O[C@H](/C(C)=C/[C@@H]3CC[C@@H](O)[C@H](OC)C3)[C@H](C)[C@@H](O)CC1=O)[C@H](C)C[C@@H]2OC [TACROLIMUS ANHYDROUS]
Not Active: IC50 [1] | IC50 [2] | IC50 [3] | IC50 (D(1A) dopamine receptor) | IC50 [4] | Ki [4] | IC50 [5] | Ki [5] | IC50 [6] | IC50 [7] | IC50 (Cytochrome P450 1A2) | Ki (Cytochrome P450 1A2) | IC50 (Cytochrome P450 2D6) | Ki (Cytochrome P450 2D6) | IC50 (Glucocorticoid receptor) | IC50 [8] | Ki [8]

CC1CN(c2cc3c(cc2F)c(=O)c(C(=O)O)cn3-c2ccc(F)cc2F)CCN1 (configuration not stated) [TEMAFLOXACIN]
Not Active: IC50 [1] | IC50 [2] | IC50 [3] | IC50 (D(1A) dopamine receptor) | IC50 [4] | Ki [4] | IC50 [5] | Ki [5] | IC50 [6] | IC50 [7] | IC50 (Cytochrome P450 1A2) | Ki (Cytochrome P450 1A2) | IC50 (Cytochrome P450 2D6) | Ki (Cytochrome P450 2D6) | IC50 (Glucocorticoid receptor) | IC50 [8] | Ki [8]

NC(CO)(CO)CO [TROMETHAMINE]
Not Active: IC50 [1] | IC50 [2] | IC50 [3] | IC50 (D(1A) dopamine receptor) | IC50 [4] | Ki [4] | IC50 [5] | Ki [5] | IC50 [6] | IC50 [7] | IC50 (Cytochrome P450 1A2) | Ki (Cytochrome P450 1A2) | IC50 (Cytochrome P450 2D6) | Ki (Cytochrome P450 2D6) | IC50 (Glucocorticoid receptor) | IC50 [8] | Ki [8]
